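Exposure lasted 48 hours, with cells grown in 96-well plates and compounds tested at five concentrations. GI50 is the concentration that inhibits growth by half.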 Active and inactive are the calls of the source. Cut-off read from the data, not from the text of the source: active = GI50 up to about 1.1 µM and inactive = higher.
Experiments:
Experiment in all cases: inhibition of tumour cell growth, NCI panel, 48 h
786-0 = tested on: 786-0
A498 = tested on: A498
A549 = tested on: A549
ACHN = tested on: ACHN
BT-549 = tested on: BT-549
CAKI-1 = tested on: CAKI-1
COLO 205 = tested on: COLO 205
DU-145 = tested on: DU-145
EKVX = tested on: EKVX
HCC 2998 = tested on: HCC 2998
HCT-116 = tested on: HCT-116
HCT-15 = tested on: HCT-15
HL-60 = tested on: HL-60
HOP-62 = tested on: HOP-62
HT-29 = tested on: HT-29
Hs-578T = tested on: Hs-578T
IGROV-1 = tested on: IGROV-1
K562 = tested on: K562
KM12 = tested on: KM12
LOX IMVI = tested on: LOX IMVI
M14 = tested on: M14
MCF7 = tested on: MCF7
MDA-MB-231 = tested on: MDA-MB-231
MDA-MB-435 = tested on: MDA-MB-435
MDA-N = tested on: MDA-N
MOLT-4 = tested on: MOLT-4
Malme-3M = tested on: Malme-3M
NCI-H226 = tested on: NCI-H226
NCI-H23 = tested on: NCI-H23
NCI-H460 = tested on: NCI-H460
NCI-H522 = tested on: NCI-H522
NCI/ADR-RES = tested on: NCI/ADR-RES
OVCAR-3 = tested on: OVCAR-3
OVCAR-4 = tested on: OVCAR-4
OVCAR-5 = tested on: OVCAR-5
OVCAR-8 = tested on: OVCAR-8
PC-3 = tested on: PC-3
RPMI-8226 = tested on: RPMI-8226
RXF 393 = tested on: RXF 393
SF-268 = tested on: SF-268
SF-295 = tested on: SF-295
SK-MEL-28 = tested on: SK-MEL-28
SK-MEL-2 = tested on: SK-MEL-2
SK-MEL-5 = tested on: SK-MEL-5
SK-OV-3 = tested on: SK-OV-3
SN12C = tested on: SN12C
SNB-19 = tested on: SNB-19
SNB-75 = tested on: SNB-75
SR = tested on: SR
SW-620 = tested on: SW-620
T47D = tested on: T47D
U-251 = tested on: U-251
UACC-62 = tested on: UACC-62
UO-31 = tested on: UO-31
CCRF-CEM = tested on: CCRF-CEM
HOP-92 = tested on: HOP-92
SF-539 = tested on: SF-539
TK-10 = tested on: TK-10
UACC-257 = tested on: UACC-257

C[C@@H](NC(=O)Nc1cccc(C(=O)Nc2cc(C(C)(C)C)ccc2C(=O)O)n1)c1ccccc1
GI50 (786-0): 37.5 µM (inactive) | GI50 (A498): 64.1 µM (inactive) | GI50 (A549): 44.3 µM (inactive) | GI50 (ACHN): 35.2 µM (inactive) | GI50 (BT-549): 37 µM (inactive) | GI50 (CAKI-1): 82.2 µM (inactive) | GI50 (COLO 205): 27.3 µM (inactive) | GI50 (DU-145): 40.2 µM (inactive) | GI50 (EKVX): 52.5 µM (inactive) | GI50 (HCC 2998): 50.8 µM (inactive) | GI50 (HCT-116): 19.9 µM (inactive) | GI50 (HCT-15): 44.2 µM | GI50 (HL-60): 45.3 µM (inactive) | GI50 (HOP-62): 28.4 µM (inactive) | GI50 (HT-29): 35.5 µM (inactive) | GI50 (Hs-578T): 40.4 µM (inactive) | GI50 (IGROV-1): 37.9 µM (inactive) | GI50 (K562): 42.5 µM (inactive) | GI50 (KM12): 55.1 µM (inactive) | GI50 (LOX IMVI): 19.3 µM (inactive) | GI50 (M14): 31 µM (inactive) | GI50 (MCF7): 16.4 µM (inactive) | GI50 (MDA-MB-231): 23.4 µM (inactive) | GI50 (MDA-MB-435): 37.3 µM (inactive) | GI50 (MDA-N): 38.4 µM (inactive) | GI50 (MOLT-4): 38 µM (inactive) | GI50 (Malme-3M): 46.5 µM (inactive) | GI50 (NCI-H226): 38.3 µM (inactive) | GI50 (NCI-H23): 41.7 µM (inactive) | GI50 (NCI-H460): 52.1 µM (inactive) | GI50 (NCI-H522): 40.8 µM (inactive) | GI50 (NCI/ADR-RES): > 100 µM (inactive) | GI50 (OVCAR-3): 21.4 µM (inactive) | GI50 (OVCAR-4): 50.1 µM (inactive) | GI50 (OVCAR-5): 33.4 µM (inactive) | GI50 (OVCAR-8): 40.6 µM (inactive) | GI50 (PC-3): 25.1 µM (inactive) | GI50 (RPMI-8226): 41.8 µM (inactive) | GI50 (RXF 393): 21.5 µM (inactive) | GI50 (SF-268): 46.8 µM (inactive) | GI50 (SF-295): 25.2 µM (inactive) | GI50 (SK-MEL-28): 41.4 µM (inactive) | GI50 (SK-MEL-2): 18.1 µM (inactive) | GI50 (SK-MEL-5): 30.1 µM (inactive) | GI50 (SK-OV-3): 43.8 µM (inactive) | GI50 (SN12C): 49.8 µM (inactive) | GI50 (SNB-19): 47 µM (inactive) | GI50 (SNB-75): 32.1 µM (inactive) | GI50 (SR): 28.4 µM (inactive) | GI50 (SW-620): 39 µM (inactive) | GI50 (T47D): 46 µM (inactive) | GI50 (U-251): 16.1 µM (inactive) | GI50 (UACC-62): 19.7 µM (inactive) | GI50 (UO-31): 40.1 µM (inactive)

Cc1ccc(C(=O)Oc2ccc(/C=C3\CCC/C(=C\c4ccc(OC(=O)c5ccc(C)cc5)cc4)C3=O)cc2)cc1
GI50 (786-0): > 100 µM (inactive) | GI50 (A549): > 100 µM (inactive) | GI50 (ACHN): > 100 µM (inactive) | GI50 (BT-549): > 100 µM (inactive) | GI50 (CAKI-1): > 100 µM (inactive) | GI50 (CCRF-CEM): > 100 µM (inactive) | GI50 (COLO 205): > 100 µM (inactive) | GI50 (DU-145): > 100 µM (inactive) | GI50 (EKVX): > 100 µM (inactive) | GI50 (HCC 2998): > 100 µM (inactive) | GI50 (HCT-116): > 100 µM (inactive) | GI50 (HCT-15): > 100 µM | GI50 (HL-60): > 100 µM (inactive) | GI50 (HOP-62): > 100 µM (inactive) | GI50 (HOP-92): > 100 µM (inactive) | GI50 (HT-29): > 100 µM (inactive) | GI50 (Hs-578T): > 100 µM (inactive) | GI50 (IGROV-1): > 100 µM (inactive) | GI50 (KM12): > 100 µM (inactive) | GI50 (LOX IMVI): > 100 µM (inactive) | GI50 (M14): > 100 µM (inactive) | GI50 (MCF7): > 100 µM (inactive) | GI50 (MDA-MB-231): > 100 µM (inactive) | GI50 (MDA-MB-435): > 100 µM (inactive) | GI50 (MDA-N): > 100 µM (inactive) | GI50 (MOLT-4): > 100 µM (inactive) | GI50 (NCI-H23): > 100 µM (inactive) | GI50 (NCI-H460): > 100 µM (inactive) | GI50 (NCI-H522): > 100 µM (inactive) | GI50 (NCI/ADR-RES): > 100 µM (inactive) | GI50 (OVCAR-3): > 100 µM (inactive) | GI50 (OVCAR-4): > 100 µM (inactive) | GI50 (OVCAR-5): > 100 µM (inactive) | GI50 (OVCAR-8): > 100 µM (inactive) | GI50 (PC-3): > 100 µM (inactive) | GI50 (RPMI-8226): > 100 µM (inactive) | GI50 (SF-268): > 100 µM (inactive) | GI50 (SF-295): > 100 µM (inactive) | GI50 (SF-539): > 100 µM (inactive) | GI50 (SK-MEL-28): > 100 µM (inactive) | GI50 (SK-MEL-2): > 100 µM (inactive) | GI50 (SK-MEL-5): > 100 µM (inactive) | GI50 (SN12C): > 100 µM (inactive) | GI50 (SNB-19): > 100 µM (inactive) | GI50 (SNB-75): 79.8 µM (inactive) | GI50 (SR): > 100 µM (inactive) | GI50 (SW-620): > 100 µM (inactive) | GI50 (T47D): > 100 µM (inactive) | GI50 (TK-10): > 100 µM (inactive) | GI50 (U-251): > 100 µM (inactive) | GI50 (UACC-257): > 100 µM (inactive) | GI50 (UACC-62): > 100 µM (inactive) | GI50 (UO-31): > 100 µM (inactive)

From ChEMBL document CHEMBL1201862, “PubChem BioAssay data set” (2004)
